This note sets out measurements from patent US20250034084A1, “COMPOSITIONS AND METHODS FOR PREVENTING OR TREATING MYCOSIS” (AMTIXBIO CO., LTD., priority 2016, published 2025).

For assay [1], the system named is Aspergillus fumigatus strains (KCCM32791, KCCM60031, KCCM60293, KCCM60036, KCCM60031, and KCCM60027). As to the kind of experiment: MIC test against several Aspergillus fumigatus strains (FIG. 2). The assay is classed as cell-based.
The subject of assay [2] is Trichophyton tonsurans, Trichophyton rubrum, Trichophyton mentagrophytes. In words: Suppressive activity against Trichophytons on YPD solid medium. The conditions noted are these: six Trichophyton strains. Type of assay: cell-based.
Assay [3] deals with Candida glabrata BG2 (ATCC). In words: Antifungal activity assay (MIC), NCCLS method. The assay is classed as cell-based. The settings on record: RPMI 1640 medium. An excerpt: (§1) In order to measure the minimum inhibitory concentration (MIC), strains Candida albicans SC5314 (ATCC), Candida glabrata BG2 (ATCC), and Cryptococcus neoformans var. grubii […] were used. All the strains used in the test examples of the present invention were purchased from Korean Culture Center of Microorganisms (KCCM) and ATCC, and used. […] As a control group, amphotericin B and fluconazole, which are known to have excellent antifungal inhibitory activity with a problem of human toxicity, were used. Specifically, in order to prepare a medium first, 8.4 g of RPMI-1640 powder (Sigma; […]-1L) was added to 900 ml of distilled water. Next, 34.5 g of MOPS was added thereto, to bring the final concentration to 0.165 M. Then, 100 ml of 20% glucose was added thereto, and then the pH of the resultant was adjusted to 7 using NaOH. Next, after performing filtration with a filter, the filtrate was stored in a refrigeration condition at 4° C. for use in the next experiment. The experimental method and procedure for the MIC assay were as follows: […] (c) in a case of Aspergillus fumigatus, a diluent was prepared at a concentration of 1×10^5 conidia/ml; (d) a 96-well plate was used and 100 μl of the solution was added to each well, so that 2 μl of diluted drug was prepared; (e) 200 μl of the solution was added to a well into which the highest concentration of drug was to be added, and dilution was performed by serial dilution; (f) after performing static culture for 48 hours at 37° C., a degree of growth was measured at OD600 and a comparison was made.

Assay [4] has as its system Candida albicans SC5314 (ATCC). In words: Antifungal activity assay (MIC), NCCLS method. Type of assay: cell-based. The settings on record: RPMI 1640 medium.
Description: as §1

The subject of assay [5] is Cryptococcus neoformans var. grubii H99 (ATCC). As to the kind of experiment: Antifungal activity assay (MIC), NCCLS method. Type of assay: cell-based. The settings on record: RPMI 1640 medium.
Description: as §1

For assay [6], the system named is Fusarium graminearum (KCTC16656) and Fusarium (KSU11480). The assay is classed as cell-based. The conditions noted are these: YPD solid medium, FIG. 4.
Assay [7] has as its system Cryptococcus neoformans wild-type (H99S). As to the kind of experiment: Drug efficacy in Galleria mellonella insect model infected with C. neoformans.
Description: The wild-type (H99S) strain of Cryptococcus neoformans, which is pathogenic fungi, was inoculated into a yeast extract, peptone, and dextrose (YPD) liquid medium, cultured for 16 hours, and then washed twice with phosphate buffered saline (PBS), to prepare a final sample of 10^6 cells/ml. […] A 4 p1 suspension of C. neoformans prepared was injected into a proleg of larvae, so that 4,000 pathogen cells were infected per larva, in which an automatic injector (PB600-1) manufactured by Hamilton Company, and 100 pl syringes and needles were used. […] A group into which PBS alone was injected each time after the infection with C. neoformans was tested as a positive control, and a group in which both infection and drug injection were replaced with PBS was tested as a negative control. […] The larvae were determined as dead in a case where the larvae became dark-colored and made no movement. […] For significance with the controls, a significance level was determined using the Long-rank (Mantel-Cox) method.

≈ marks a conversion by molar mass, not a printed value. Bounds are passed on as bounds.

Turning to “(R)/(S)-1-((4-((4-(trifluorobenzyl)oxy)benzyl)amino)-1-oxopentane-2-aminium chloride [Compound 26]”, the “inhibitory activity (MIC, average values) compared with amphotericin B” value in assay [1] is given as “higher inhibitory activity than amphotericin B”. Also, the “suppressive activity against Trichophytons” value in assay [2] was “excellent suppressive activity”. Further, the “MIC C. glabrata” value in assay [3] was determined as 8 µg/mL. For the same compound, in assay [4], the “MIC C. albicans” value was found to be 16 µg/mL. For the same compound, the “MIC C. neoformans” value in assay [5] was 4 µg/mL. In assay [6], the “suppressive activity against phytopathogenic fungi” value is “very excellent suppressive activity”.

Regarding `CCC(N)C(=O)NCc1ccc(OCc2ccc(C(F)(F)F)cc2)cc1.Cl` (racemic) [Compound 22, (R)/(S)-1-oxo-1-((4-((4-(trifluoromethyl)benzyl)oxy)benzyl)amino)butane-2-aminium chloride], in assay [1], the “inhibitory activity (MIC, average values) compared with amphotericin B” value is reported as “higher inhibitory activity than amphotericin B”. Also, the “MIC C. glabrata” value in assay [3] worked out at 32 µg/mL. Besides, the “MIC C. albicans” value in assay [4] was found to be 64 µg/mL. Also, the “MIC C. neoformans” value in assay [5] was found to be 16 µg/mL.

Regarding `CCC(N)C(=O)NCc1ccc(OCc2cccc(F)c2)cc1.Cl` (racemic) [Compound 18, (R)/(S)-1-((4-((3-(fluorobenzyl)oxy)benzyl)amino)-1-oxobutane-2-aminium chloride], the “survival rate on day 7 of the infection” value in assay [7] (PBS group all died) came out at 50%. Besides, in assay [7] (drug injected 3 h after infection and once every 24 h for two more days, PBS group 60%), the “survival of larvae on day 3 of the infection” value is given as “all survived”. For the same compound, the “MIC C. glabrata” value in assay [3] is more than 128 µg/mL. For the same compound, the “MIC C. albicans” value in assay [4] is more than 128 µg/mL. The “MIC C. neoformans” value in assay [5] is 128 µg/mL.

For the compound `CCC(NC)C(=O)NCc1ccc(OCc2cccc(Cl)c2)cc1` (racemic) [Compound 28, (R)/(S)-N-(4-((3-chlorobenzyl)oxy)benzyl)-2-(methylamino)butanamide], in assay [1], the “inhibitory activity (MIC, average values) compared with amphotericin B” value is on record as “higher inhibitory activity than amphotericin B”. Also, in assay [3], the “MIC C. glabrata” value is 64 µg/mL (≈ 185 µM). Further, the “MIC C. albicans” value in assay [4] was found to be 64 µg/mL (≈ 185 µM). Moreover, in assay [5], the “MIC C. neoformans” value was found to be 16 µg/mL (≈ 46.1 µM).

With `CCCC(NC)C(=O)NCc1ccc(OCc2ccc(C(F)(F)F)cc2)cc1` (racemic) [Compound 31, (R)/(S)-2-(methylamino)-N-(4-((4-trifluoromethyl)benzyl)oxy)benzyl)pentanamide], the “MIC C. glabrata” value in assay [3] is 16 µg/mL (≈ 40.6 µM). For the same compound, the “MIC C. albicans” value in assay [4] amounted to 16 µg/mL (≈ 40.6 µM). Moreover, the “MIC C. neoformans” value in assay [5] is 4 µg/mL (≈ 10.1 µM).

On to `CN1CCC(C(=O)NCc2ccc(OCc3ccc(Cl)cc3)cc2)C1` (racemic) [Compound 54, (R)/(s)-1-methyl-N-(4-((4-chlorobenzyl)oxy)benzyl)pyrrolidine-3-carboxamide], for which the “MIC C. glabrata” value in assay [3] was found to be 64 µg/mL (≈ 178 µM). Also, in assay [4], the “MIC C. albicans” value worked out at 64 µg/mL (≈ 178 µM). The “MIC C. neoformans” value in assay [5] was 8 µg/mL (≈ 22.3 µM).

Consider `CCC(NC)C(=O)NCc1ccc(OCc2ccc(Cl)cc2)cc1` (racemic) [Compound 29, (R)/(S)-N-(4-((4-chlorobenzyl)oxy)benzyl)-2-(methylamino)butanamide], for which, in assay [3], the “MIC C. glabrata” value worked out at 32 µg/mL (≈ 92.3 µM). In addition, in assay [4], the “MIC C. albicans” value is 32 µg/mL (≈ 92.3 µM). The “MIC C. neoformans” value in assay [5] was 8 µg/mL (≈ 23.1 µM).

As to `CCC(N)C(=O)NCc1ccc(OCc2cccc(Cl)c2)cc1.Cl` (racemic) [Compound 23, (R)/(S)-1-((4-((3-(chlorobenzyl)oxy)benzyl)amino)-1-oxobutane-2-aminium chloride], the “MIC C. glabrata” value in assay [3] was found to be 64 µg/mL. Further, the “MIC C. albicans” value in assay [4] amounted to 64 µg/mL. In assay [5], the “MIC C. neoformans” value worked out at 16 µg/mL.

For `CCCC(N)C(=O)NCc1ccc(OCc2cccc(F)c2)cc1.Cl` (racemic) [Compound 25, (R)/(S)-1-((4-((3-fluorobenzyl)oxy)benzyl)amino)-1-oxopentane-2-aminium chloride], in assay [3], the “MIC C. glabrata” value was found to be 64 µg/mL. For the same compound, the “MIC C. albicans” value in assay [4] was 128 µg/mL. Also, the “MIC C. neoformans” value in assay [5] is 32 µg/mL.

As to `Cl.O=C(NCc1ccc(OCc2ccc(F)cc2)cc1)C1CCCN1` (racemic) [Compound 39, (R)/(S)-N-(4-((4-fluorobenzyl)oxy)benzyl)pyrrolidine-2-carboxamide hydrochloride], the “MIC C. glabrata” value in assay [3] was more than 128 µg/mL. For the same compound, the “MIC C. albicans” value in assay [4] is more than 128 µg/mL. For the same compound, the “MIC C. neoformans” value in assay [5] came out at 128 µg/mL.

As to `C[C@@H]1[C@H](O)[C@@H](C)/C=C/C=C/C=C/C=C/C=C/C=C/C=C/[C@H](O[C@@H]2O[C@H](C)[C@@H](O)[C@H](N)[C@@H]2O)C[C@@H]2O[C@](O)(C[C@@H](O)C[C@@H](O)[C@H](O)CC[C@@H](O)C[C@@H](O)CC(=O)O[C@H]1C)C[C@H](O)[C@H]2C(=O)O` [AmpB, amphotericin B, reference compound], the “MIC C. glabrata” value in assay [3] is 0.5 µg/mL (≈ 0.541 µM). For the same compound, in assay [4], the “MIC C. albicans” value stood at 0.25 µg/mL (≈ 0.271 µM). The “MIC C. neoformans” value in assay [5] is 0.125 µg/mL (≈ 0.135 µM).

With `CN1CCCC1C(=O)NCc1ccc(OCc2cccc(F)c2)cc1` (racemic) [Compound 42, (R)/(s)-1-methyl-N-(4-((3-fluorobenzyl)oxy)benzyl)pyrrolidine-2-carboxamide], in assay [3], the “MIC C. glabrata” value came out at 128 µg/mL (≈ 374 µM). For the same compound, the “MIC C. albicans” value in assay [4] amounted to 128 µg/mL (≈ 374 µM). Further, the “MIC C. neoformans” value in assay [5] was 16 µg/mL (≈ 46.7 µM).

Turning to `CCC(N)C(=O)NCc1ccc(OCc2ccc(Cl)cc2)cc1.Cl` (racemic) [Compound 24, (R)/(S)-1-((4-((4-(chlorobenzyl)oxy)benzyl)amino)-1-oxobutane-2-aminium chloride], in assay [3], the “MIC C. glabrata” value was found to be 32 µg/mL. Also, in assay [4], the “MIC C. albicans” value came out at 64 µg/mL. For the same compound, the “MIC C. neoformans” value in assay [5] came to 16 µg/mL.

Take `Cl.O=C(NCc1ccc(OCc2ccc(Cl)cc2)cc1)C1CCCN1` (racemic) [Compound 51, (R)/(S)-2-((4-(4-chlorobenzyl)oxy)benzyl) carbamoyl)pyrrolidi-1-nium chloride]: the “MIC C. glabrata” value in assay [3] was found to be 128 µg/mL. The “MIC C. albicans” value in assay [4] is 64 µg/mL. Further, the “MIC C. neoformans” value in assay [5] was found to be 8 µg/mL.
